As a reminder, the DC50 is the concentration at which degradation of the target reaches its halfway point.

SMILES strings stand for the structures.

The values below come from patent US12404241B2 (Celgene Corporation, priority 2018, dated 2025).

The target of the test is T1, AR (Homo sapiens, UniProt P10275).
T1 construct: endogenous in cells; host or cells: VCaP cells
T1 sequence (P10275 1-920): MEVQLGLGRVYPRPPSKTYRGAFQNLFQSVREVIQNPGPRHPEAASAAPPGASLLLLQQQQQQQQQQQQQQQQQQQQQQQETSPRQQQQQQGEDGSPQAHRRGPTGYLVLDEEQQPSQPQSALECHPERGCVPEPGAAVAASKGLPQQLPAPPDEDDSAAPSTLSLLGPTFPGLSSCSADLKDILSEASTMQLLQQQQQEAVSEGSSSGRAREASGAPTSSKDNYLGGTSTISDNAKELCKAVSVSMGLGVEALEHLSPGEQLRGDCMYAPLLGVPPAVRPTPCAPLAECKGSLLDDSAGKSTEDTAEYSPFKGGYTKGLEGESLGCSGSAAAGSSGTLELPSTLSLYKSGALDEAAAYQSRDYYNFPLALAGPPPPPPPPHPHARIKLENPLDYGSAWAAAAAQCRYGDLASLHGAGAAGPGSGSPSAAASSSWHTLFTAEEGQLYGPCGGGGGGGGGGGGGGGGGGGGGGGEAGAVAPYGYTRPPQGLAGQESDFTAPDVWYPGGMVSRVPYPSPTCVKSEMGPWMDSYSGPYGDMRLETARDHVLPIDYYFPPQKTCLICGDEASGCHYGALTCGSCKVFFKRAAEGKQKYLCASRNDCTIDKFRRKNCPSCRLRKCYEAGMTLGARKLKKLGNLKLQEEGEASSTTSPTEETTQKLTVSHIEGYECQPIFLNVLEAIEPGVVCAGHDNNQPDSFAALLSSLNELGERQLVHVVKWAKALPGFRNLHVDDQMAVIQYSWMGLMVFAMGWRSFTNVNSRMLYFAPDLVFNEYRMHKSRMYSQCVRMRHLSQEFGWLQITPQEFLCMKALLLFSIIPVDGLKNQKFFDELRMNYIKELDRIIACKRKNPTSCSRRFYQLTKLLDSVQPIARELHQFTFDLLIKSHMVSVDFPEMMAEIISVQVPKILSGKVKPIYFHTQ
The test is described as follows: VCAP AR Degradation Assay. The class given is cell-based. Conditions: for Y (AR degradation efficiency, % of DMSO control): class symbols *; for DC50: class symbols A-C, read-out: DC50. In outline: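 24 h, 37 °C, VCaP (DMEM/8% FBS), 10-pt 1:3 dilutions from 5 μM final top, 0.1% DMSO ctrl. Lysis on ice/4 °C 1 h; total AR by sandwich ELISA, normalized to DMSO. 4PL fit → DC50, EC50, Y (min AR level).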

For `CCc1cc(N2C(=S)N(c3cnc(C#N)c(C(F)(F)F)c3)C(=O)C2(C)C)ccc1OCCN1CCN(CC(=O)Nc2cc(F)cc(NC3CCC(=O)NC3=O)c2)C(C)(C)C1` (stereo not shown) [Example 77, 2-(4-(2-(4-(3-(6-cyano-5-(trifluoromethyl)pyridin-3-yl)-5,5-dimethyl-4-oxo-2-thioxoimidazolidin-1-yl)-2-ethylphenoxy)ethyl)-2,2-dimethylpiperazin-1-yl)-N-(3-(2,6-dioxopiperidin-3-ylamino)-5-fluorophenyl)acetamide], the “Y (AR degradation efficiency, % of DMSO control)” value was “* (0<Y<=25%)” and the DC50 is less than 100 nM.

On to `CCc1cc(N2C(=S)N(c3cnc(C#N)c(C(F)(F)F)c3)C(=O)C2(C)C)ccc1OCCN1CCN(CC(=O)Nc2cc(Cl)cc(NC3CCC(=O)NC3=O)c2)C(C)(C)C1` (stereo not shown) [Example 78, N-(3-chloro-5-(2,6-dioxopiperidin-3-ylamino)phenyl)-2-(4-(2-(4-(3-(6-cyano-5-(trifluoromethyl)pyridin-3-yl)-5,5-dimethyl-4-oxo-2-thioxoimidazolidin-1-yl)-2-ethylphenoxy)ethyl)-2,2-dimethylpiperazin-1-yl)acetamide], for which the “Y (AR degradation efficiency, % of DMSO control)” value is on record as “* (0<Y<=25%)” and the DC50 was less than 100 nM.

`CCc1cc(N2C(=S)N(c3ccc(C#N)c(C(F)(F)F)c3)C(=O)C2(C)C)ccc1OCCN1CCN(CC(=O)Nc2cc(Cl)cc(NC3CCC(=O)NC3=O)c2)C(C)(C)C1` (stereo not shown) [Example 79, N-(3-chloro-5-(2,6-dioxopiperidin-3-ylamino)phenyl)-2-(4-(2-(4-(3-(4-cyano-3-(trifluoromethyl)phenyl)-5,5-dimethyl-4-oxo-2-thioxoimidazolidin-1-yl)-2-ethylphenoxy)ethyl)-2,2-dimethylpiperazin-1-yl)acetamide]: the “Y (AR degradation efficiency, % of DMSO control)” value was “** (25%<Y<=35%)” and the DC50 was less than 100 nM.

Regarding `CC(F)(F)c1cc(N2C(=S)N(c3cnc(C#N)c(C(F)(F)F)c3)C(=O)C2(C)C)ccc1OCCN1CCN(CC(=O)Nc2cc(F)cc(NC3CCC(=O)NC3=O)c2)CC1` (stereo not shown) [Example 80, 2-(4-(2-(4-(3-(6-cyano-5-(trifluoromethyl)pyridin-3-yl)-5,5-dimethyl-4-oxo-2-thioxoimidazolidin-1-yl)-2-(1,1-difluoroethyl)phenoxy)ethyl)piperazin-1-yl)-N-(3-(2,6-dioxopiperidin-3-ylamino)-5-fluorophenyl)acetamide], the “Y (AR degradation efficiency, % of DMSO control)” value is reported as “* (0<Y<=25%)” and the DC50 was less than 100 nM.

For `CCc1cc(N2C(=S)N(c3cnc(C#N)c(C(F)(F)F)c3)C(=O)C2(C)C)ccc1OCCN1CCN(CC(=O)Nc2cccc(NC3CCC(=O)NC3=O)c2)[C@H](C)C1` (stereo partly drawn) [Example 81, 2-((R)-4-(2-(4-(3-(6-cyano-5-(trifluoromethyl)pyridin-3-yl)-5,5-dimethyl-4-oxo-2-thioxoimidazolidin-1-yl)-2-ethylphenoxy)ethyl)-2-methylpiperazin-1-yl)-N-(3-(2,6-dioxopiperidin-3-ylamino)phenyl)acetamide], the “Y (AR degradation efficiency, % of DMSO control)” value is “* (0<Y<=25%)” and the DC50 was less than 100 nM.

For `CC(F)(F)c1cc(N2C(=S)N(c3cnc(C#N)c(C(F)(F)F)c3)C(=O)C2(C)C)ccc1OCCN1CCN(CC(=O)Nc2cc(NC3CCC(=O)NC3=O)cc(F)c2F)CC1` (stereo not shown) [Example 82, 2-(4-(2-(4-(3-(6-cyano-5-(trifluoromethyl)pyridin-3-yl)-5,5-dimethyl-4-oxo-2-thioxoimidazolidin-1-yl)-2-(1,1-difluoroethyl)phenoxy)ethyl)piperazin-1-yl)-N-(5-(2,6-dioxopiperidin-3-ylamino)-2,3-difluorophenyl)acetamide], the “Y (AR degradation efficiency, % of DMSO control)” value is recorded as “* (0<Y<=25%)” and the DC50 was less than 100 nM.

Turning to `CCc1cc(N2C(=S)N(c3cnc(C#N)c(C(F)(F)F)c3)C(=O)C2(C)C)ccc1OCCN1CCN(CC(=O)Nc2cc(NC3CCC(=O)NC3=O)cc(F)c2F)C(C)(C)C1` (stereo not shown) [Example 83, 2-(4-(2-(4-(3-(6-cyano-5-(trifluoromethyl)pyridin-3-yl)-5,5-dimethyl-4-oxo-2-thioxoimidazolidin-1-yl)-2-ethylphenoxy)ethyl)-2,2-dimethylpiperazin-1-yl)-N-(5-(2,6-dioxopiperidin-3-ylamino)-2,3-difluorophenyl)acetamide], the “Y (AR degradation efficiency, % of DMSO control)” value is listed as “* (0<Y<=25%)” and the DC50 is less than 100 nM.

`CC1(C)C(=O)N(c2cnc(C#N)c(C(F)(F)F)c2)C(=S)N1c1ccc(OCCN2CCN(CC(=O)Nc3cc(Cl)cc(NC4CCC(=O)NC4=O)c3)CC2)c(C2CC2)c1` (stereo not shown) [Example 84, N-(3-chloro-5-(2,6-dioxopiperidin-3-ylamino)phenyl)-2-(4-(2-(4-(3-(6-cyano-5-(trifluoromethyl)pyridin-3-yl)-5,5-dimethyl-4-oxo-2-thioxoimidazolidin-1-yl)-2-cyclopropylphenoxy)ethyl)piperazin-1-yl)acetamide]: the “Y (AR degradation efficiency, % of DMSO control)” value is reported as “* (0<Y<=25%)” and the DC50 was less than 100 nM.

Take `CCc1cc(N2C(=S)N(c3cnc(C#N)c(C(F)(F)F)c3)C(=O)C23CCC3)ccc1OCCN1CCN(CC(=O)Nc2cc(Cl)cc(NC3CCC(=O)NC3=O)c2)CC1` (stereo not shown) [Example 85, N-(3-chloro-5-(2,6-dioxopiperidin-3-ylamino)phenyl)-2-(4-(2-(4-(7-(6-cyano-5-(trifluoromethyl)pyridin-3-yl)-8-oxo-6-thioxo-5,7-diazaspiro[3.4]octan-5-yl)-2-ethylphenoxy)ethyl)piperazin-1-yl)acetamide]: the “Y (AR degradation efficiency, % of DMSO control)” value was “* (0<Y<=25%)” and the DC50 was less than 100 nM.

Take `CC1(C)C(=O)N(c2cnc(C#N)c(C(F)(F)F)c2)C(=S)N1c1ccc(OCCN2CCN(CC(=O)Nc3cc(NC4CCC(=O)NC4=O)ccc3F)CC2)cc1` (stereo not shown) [Example 86, 2-(4-(2-(4-(3-(6-cyano-5-(trifluoromethyl)pyridin-3-yl)-5,5-dimethyl-4-oxo-2-thioxoimidazolidin-1-yl)phenoxy)ethyl)piperazin-1-yl)-N-(5-(2,6-dioxopiperidin-3-ylamino)-2-fluorophenyl)acetamide]: the “Y (AR degradation efficiency, % of DMSO control)” value was “** (25%<Y<=35%)” and the DC50 is less than 100 nM.

As to `CCc1cc(N2C(=S)N(c3ccc(C#N)c(C(F)(F)F)c3)C(=O)C2(C)C)ccc1OCCN1CCN(CC(=O)Nc2cc(Cl)cc(NC3CCC(=O)NC3=O)c2)[C@H](C)C1` (stereo partly drawn) [Example 87, N-(3-chloro-5-(2,6-dioxopiperidin-3-ylamino)phenyl)-2-((R)-4-(2-(4-(3-(4-cyano-3-(trifluoromethyl)phenyl)-5,5-dimethyl-4-oxo-2-thioxoimidazolidin-1-yl)-2-ethylphenoxy)ethyl)-2-methylpiperazin-1-yl)acetamide], the “Y (AR degradation efficiency, % of DMSO control)” value is given as “* (0<Y<=25%)” and the DC50 is less than 100 nM.

As to `CCc1cc(N2C(=S)N(c3ccc(C#N)c(C(F)(F)F)c3)C(=O)C2(C)C)ccc1CCCN1CCN(CC(=O)Nc2cc(F)cc(NC3CCC(=O)NC3=O)c2)CC1` (stereo not shown) [Example 88, 2-(4-(3-(4-(3-(4-cyano-3-(trifluoromethyl)phenyl)-5,5-dimethyl-4-oxo-2-thioxoimidazolidin-1-yl)-2-ethylphenyl)propyl)piperazin-1-yl)-N-(3-(2,6-dioxopiperidin-3-ylamino)-5-fluorophenyl)acetamide], the “Y (AR degradation efficiency, % of DMSO control)” value is given as “* (0<Y<=25%)” and the 50% degradation concentration (DC50) was less than 100 nM.

With `CCc1cc(N2C(=S)N(c3ccc(C#N)c(C(F)(F)F)c3)C(=O)C2(C)C)ccc1CCCN1CCN(CC(=O)Nc2cc(Cl)cc(NC3CCC(=O)NC3=O)c2)CC1` (stereo not shown) [Example 89, N-(3-chloro-5-(2,6-dioxopiperidin-3-ylamino)phenyl)-2-(4-(3-(4-(3-(4-cyano-3-(trifluoromethyl)phenyl)-5,5-dimethyl-4-oxo-2-thioxoimidazolidin-1-yl)-2-ethylphenyl)propyl)piperazin-1-yl)acetamide], the “Y (AR degradation efficiency, % of DMSO control)” value was “* (0<Y<=25%)” and the DC50 is less than 100 nM.

`CCc1cc(N2C(=S)N(c3ccc(C#N)c(C(F)(F)F)c3)C(=O)C2(C)C)ccc1OCCN1CCN(CC(=O)Nc2cc(F)cc(NC3CCC(=O)NC3=O)c2)[C@H](C)C1` (stereo partly drawn) [Example 90, 2-((R)-4-(2-(4-(3-(4-cyano-3-(trifluoromethyl)phenyl)-5,5-dimethyl-4-oxo-2-thioxoimidazolidin-1-yl)-2-ethylphenoxy)ethyl)-2-methylpiperazin-1-yl)-N-(3-(2,6-dioxopiperidin-3-ylamino)-5-fluorophenyl)acetamide]: the “Y (AR degradation efficiency, % of DMSO control)” value is recorded as “* (0<Y<=25%)” and the DC50 was less than 100 nM.
